Here are results for 1 compound from patent EP2108954A1, “A test system for detecting intracellular cyclic nucleotide level and methods and uses thereof” (Max-Planck-Gesellschaft zur Förderung der Wissenschaften …, priority 2008, dated 2009).

In one assay the target is T1, Or22a and Or83b (Drosophila melanogaster, UniProt P81909+Q9VNB5).
T1 construct: expressed in transfected cells; host or cells: HEK293
T1 sequence (P81909 1-397): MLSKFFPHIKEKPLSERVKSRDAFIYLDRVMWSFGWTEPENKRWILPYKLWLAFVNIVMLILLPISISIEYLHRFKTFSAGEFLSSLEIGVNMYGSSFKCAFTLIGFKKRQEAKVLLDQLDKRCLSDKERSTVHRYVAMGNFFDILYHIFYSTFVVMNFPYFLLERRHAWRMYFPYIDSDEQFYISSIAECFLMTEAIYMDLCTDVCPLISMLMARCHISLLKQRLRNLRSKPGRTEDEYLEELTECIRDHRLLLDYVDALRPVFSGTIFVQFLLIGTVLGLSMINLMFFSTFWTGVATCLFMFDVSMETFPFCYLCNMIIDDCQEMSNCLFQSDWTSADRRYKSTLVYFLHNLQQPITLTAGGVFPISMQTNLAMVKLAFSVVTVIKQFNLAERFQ
T1 sequence (Q9VNB5 1-486): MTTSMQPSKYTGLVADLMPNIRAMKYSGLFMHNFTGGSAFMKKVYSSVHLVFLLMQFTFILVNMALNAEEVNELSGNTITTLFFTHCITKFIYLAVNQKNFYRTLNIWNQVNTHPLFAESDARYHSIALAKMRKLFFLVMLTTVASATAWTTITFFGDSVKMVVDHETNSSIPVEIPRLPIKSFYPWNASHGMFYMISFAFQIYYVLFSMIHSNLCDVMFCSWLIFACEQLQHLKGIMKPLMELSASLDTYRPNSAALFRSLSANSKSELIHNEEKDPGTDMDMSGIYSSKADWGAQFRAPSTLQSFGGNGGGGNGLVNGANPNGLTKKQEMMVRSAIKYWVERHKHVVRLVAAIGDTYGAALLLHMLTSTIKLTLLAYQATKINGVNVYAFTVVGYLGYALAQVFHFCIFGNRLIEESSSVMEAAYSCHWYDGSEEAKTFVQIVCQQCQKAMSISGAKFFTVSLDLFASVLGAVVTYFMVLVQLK
The experiment in a line: Calcium imaging (fura-2) in HEK293 cells coexpressing Or22a and Or83b. It counts as cell-based. The note with it: dependent on Etb concentration and on extracellular Ca^2+. The method, then: Free intracellular Ca^2+ concentration ([Ca^2+]i) was determined by fura-2 fluorescence as described (Messutat et al., Cell Calcium 30, 199-211. (2001)). In brief, cells were loaded with fura-2 by incubation in bath solution containing 2 µM fura-2/acetomethylester for 20 min. Free intracellular Ca^2+ concentration ([Ca^2+]i) was determined with the fluorescence ratio method. Excitation of fura-2 at 340 and 380 nm was performed with a monochromator (Polychrome II, T.I.L.L. Photonics, Gräfelfing, Germany) coupled via an epifluorescence condenser into an Axioskop FS microscope (Carl Zeiss, Jena, Germany) with a water immersion objective (LUMPFL 40xW/IR/0.8; Olympus, Hamburg, Germany). […] [Ca^2+]i was calculated according to the equation [Ca^(2 +)]i = Keff (R-Rmin)/(Rmax-R). […] Keff, Rmin, and Rmax were determined using HEK293 cells permeabilized with 2 µM ionomycin and three solutions with different concentrations of free Ca^2+ (Ca^2+ free; 5 mM Ca^2+; 500 nM Ca^2+; the composition of the 500 nM solution was calculated with WEBMAXC v.2.20) (Patton et al., Cell Calcium 35, 427-31 (2004)). […]
Fluorescence images were acquired using a cooled CCD camera controlled by TILLVision 4.0 software (T.I.L.L. Photonics). […] Image pairs were obtained by excitation for 100 ms at 340 nm and 380 nm; background fluorescence was subtracted.

The target of a further assay is T2, Or83b (Drosophila melanogaster, UniProt Q9VNB5).
T2 sequence (Q9VNB5 1-486): T1 sequence (Q9VNB5 1-486)
As to the kind of experiment: Whole-cell patch-clamp of HEK293 cells expressing Or83b alone. It counts as cell-based. More on the design: expressed in transfected cells; host or cells: HEK293. The note with it: HEK293 cells transfected with Or83b alone; whole-cell, -60 mV; n = 6. On the procedure:
In some experiments we transfected cells with pcDNA3-DOR22a-GFP or pcDNA3-DOR83b-GFP alone. We also examined the properties of DOR47a, which was cloned, using standard molecular biology methods into a pcDNA3.1(-) expression vector. To test for putative G-protein coupling, cells were transfected with the respective OR-DNA together with 1.5 µg hHCN2/pcDNA3 (provided by M. Biel, Munich, Germany), with 1 µg hKCNQ4/pcDNA3.1 or with 1 µg hCNGA2/pCMV6-XL4 (Origene, Rockville, MD, USA).
In brief, ion currents in HEK293 cells were measured at room temperature using whole-cell patch-clamp with appropriate compensation of series resistance and of capacitive currents. Additional experiments were performed in the outside-out configuration. Current measurements and data acquisition were performed using an EPC9 patch-clamp amplifier controlled by PatchMaster software (both HEKA Elektronik, Lambrecht, Germany). Patch-clamp pipettes were fabricated from borosilicate capillaries. Pipettes for whole-cell recordings had resistances of 2-4 MΩ for excised-patch recordings the pipette resistance was up to 15 MΩ.
To differentiate between ionotropic and metabotropic pathways of receptor activation (Fig. 2a-d) the pipette solution contained either 2 mM ATP plus 2 mM GTP or 2 mM ADP plus 2 mM GDP (both for whole-cell and outside-out configuration). For the preparation of Cl^--free solutions the chloride salts were substituted by gluconate salts. The pipette Cs^+ solution contained (in mM) 140 CsCl, 1 Mg-ATP, 10 EGTA, 10 HEPES (pH = 7.3), and the Cs^+ bath solution contained (in mM) 140 CsCl, 15 glucose, 15 HEPES (pH = 7.4). The Ca^2+-free bath solution contained (in mM) 140 NaCl, 15 glucose, 15 HEPES, and the Na^+-free bath solution contained (in mM) 140 NMDG-Cl, 10 CaCl2, 10 glucose, 15 HEPES.
With the exception of GDP-γ-S, which was applied via the patch pipette, all substances were applied to the bath using either a bath perfusion system (BPS4 from ALA, New York, USA) or a rapid solution changer (RSC160 from Biologic, Claix, France) which were controlled by the PatchMaster software (HEKA Elektronik).
On the technique in general: The patch-clamp technique gives a direct electrical read-out from membranes.

As for `CCCC(=O)OCC` [Etb, ethyl butyrate], the “intracellular Ca^2+ concentration ([Ca^2+]i)” value on Or22a and Or83b is given as “increased intracellular Ca^2+ concentration”. For the same compound, at Or83b, the “inward current upon short Etb application” value is on record as “no current was observed”.
